The text below walks through data of US8318787B2, “Prodrugs of (3,5-bis(4-fluorophenyl)tetrahydro-1H-oxazolo[3,4-C]oxazol-7A-yl)methanol and derivatives thereof” (University of Kansas, priority 2005, dated 2012).

Series [1] can be described thus: Oral absorption of parent compound and prodrug (plasma levels). Type of series: in vivo. The procedure:
The prodrug compound (3,5-bis(4-fluorophenyl)tetrahydro-1H-oxazolo[3,4-C]oxazol-7a-yl)methanol phosphate was studied for oral absorption. A formulation of (3,5-bis(4-fluorophenyl)tetrahydro-1H-oxazolo[3,4-C]oxazol-7a-yl)methanol was prepared into a suspension and into a composition with Captisol, and the prodrug thereof was formulated into an aqueous solution. Oral absorption behavior of the parent compound is depicted in FIG. 8. As previously mentioned, the systemic exposure of the parent compound following oral administration of the parent compound as a suspension is limited compared to a solution of the parent compound administered in Captisol. The systemic exposure of the prodrug compound following oral administration of an aqueous solution of the prodrug compound is depicted in FIG. 9.

The subject of the next series is primary cortical neurons. The series is described as follows: Neuroprotection of primary cortical neurons exposed to Aβ peptides (Live/Dead assay). Type of series: cell-based. The conditions noted are these: Rattus norvegicus, Primary cortical neuron, Aβ25-35, 48 hours, read-out: EC50 (concentration that lead to a 50% increase in neuronal survival in the presence of the Aβ peptide). The method, then:
This example illustrates the neuroprotective effects of TH-237A in neuronal cells after exposure to Aβ peptides. To prepare the primary neurons, dissociated cortical cell cultures were established from embryonic day 18 rat fetuses recovered from pregnant Sprague Dawley rats (Harlan Sprague Dawley, Inc., Indianapolis, Ind.) as described previously (Michaelis et al., 1994). Pups were delivered by cesarean section while the dam was anesthetized with pentobarbital (140 mg/kg, i.p.), and the brains were recovered according to National Institutes of Health-approved protocols. After the final precipitation step, neurons were suspended in fresh DMEM/F12 (Sigma Chemical Co. St. Louis, Mo.) with 10% fetal bovine serum (Atlanta Biologicals, Atlanta, Ga.) and plated at a density of 2.5×10^5 cells in 35 mm glass bottom microwell dishes (Mat-Tek Co., Ashland, Mass.), coated with poly-D-lysine. Serum-containing medium was removed after 24 hours, and the cells were maintained in serum-free DMEM/F12 containing the N2 supplements. […]
After five days in culture, the primary neurons were exposed to either Aβ25-35 or Aβ1-42 in the presence or absence of concentrations of TH-237A ranging from 0.5 to 60 nM. […] Each batch of Aβ peptide was analyzed for β-sheet formation by circular dichroism, but no effort was made to separate oligomers from fibrils. […]
The effects of the Aβ peptides and TH-237A were primarily determined by monitoring neuronal cell survival using the Live/Dead assay as previously described (Michaelis et al., 1998; Michaelis et al., 2005). […] The number of viable (green) and dead (red) neurons was determined by counting the cells, and this was done in 6-12 microscopic fields per culture dish in duplicate dishes for each treatment. […] Thus, approximately 1500 neurons were scored under each treatment condition. The fraction of viable cells in each field was calculated based on the total number of cells counted in each field. Raw data from each experiment were combined and the significance of differences between cultures exposed to various treatments was determined using Student's t test. […]

Series [2] has as its system P-glycoprotein efflux transporter. Briefly: Rhodamine 123 accumulation assay in bovine brain microvessel endothelial cells. Type of series: in vitro ADME. Conditions: BBMECs. The procedure:
First, a rhodamine 123 assay was used for to assess uptake of the test compound in brain endothelial cells. Bovine brain microvessel endothelial cells (“BBMECs”) were isolated and grown in primary culture on 12 well cluster dishes at a density of 50,000 cells/cm^2 essentially as described previously (Rice et al., 2005). The culture medium was changed every other day after seeding until a confluent monolayer was formed as determined by light microscopy. Experiments were performed in phosphate buffered saline supplemented with calcium and glucose (PBSA), pH 7.4. Briefly, the growth medium was first aspirated off, and the cells were rinsed three times with pre-warmed (37° C.) PBSA. […] Cell lysates were assayed using a microplate fluorescence reader (Bio-Tek Instruments, Winooski, Vt.) at excitation/emission wavelengths of 485 nm/520 nm, then quantified against standard curves of rhodamine 123 in lysing solution. The fluorescence of the cell lysates was corrected for autofluorescence of untreated cells. The protein content of each monolayer was then determined using the BCA protein assay reagent kit. Results were expressed as total nanomoles of rhodamine 123 accumulation per mg cellular protein for agents tested at 10 μM.

A short description of series [3]: In vivo pharmacokinetics in plasma and brain. Conditions: mice, 10 mg/Kg in Captisol, i.v. or s.c. More on the design: species or system Male Balb/C mice. The procedure:
In this example, the pharmacokinetics of TH-237A were evaluated in vivo. Male Balb/C mice were dosed with TH-237A (10 mg/Kg in Captisol®) via either an i.v. injection into the tail vein or via subcutaneous (sc) injection. At multiple time points ranging from 0 to 240 minutes, 12 mice (n=6, i.v.; n=6, s.c.) were anesthetized with isoflurane, and blood was collected via cardiac puncture. Mice were perfused with 30 mL of saline to wash remaining blood from the vessels, and the brain tissue was harvested. The levels of TH-237A in plasma and brain were quantified using mass spectrometric methods.
Sample preparations. Brain homogenate was prepared in a 1:4 ratio with deionized water. A sonic dismembrator was pulsed at 30% power until the sample was liquified. Aliquots of mouse plasma (0.05 mL) or mouse brain homogenates (0.25 g) were spiked with 50 ng of internal standard (deuterated TH-237A) and vortexed for 10 seconds. The TH-237A and internal standard were extracted using 1.3 mL of methyl t-butyl ether. Samples were vortexed for 5 minutes and centrifuged. The supernatant was transferred to 2 mL centrifuge tubes and evaporated to dryness. The sample was reconstituted in 0.2 mL of sample solvent, vortexed and centrifuged before a 10 uL aliquot was injected on to the LC/MS system for analysis.
Analysis of TH-237A. The levels of the drug in the samples were determined by means of HPLC/MS. […]

Another series in a line: in vitro. Conditions: bovine, pH 7.4.

Description for in vitro: The BBMECs were grown on 0.4 μm polycarbonate membranes. […] Transport studies were performed in pH 7.4 standard buffer solutions, consisting of either Hank's balanced salt solution (HBSS) or phosphate buffered saline (PBS) supplemented with 0.63 mM CaCl2, 0.74 mM MgSO4, 5.3 mM glucose and 0.1 mM ascorbic acid (PBSA). Briefly, all studies were performed in 3 ml of PBSA in each donor and receiver chamber of the side-by-side diffusion chambers and stirred at 600 rpm at 37° C. The cells were allowed to equilibrate in PBSA for 30 minutes prior to each experiment and oriented such that apical or blood side of the cells face the donor chamber and the basolateral or brain side of the cells adhere to the polycarbonate membranes and face the receiver chamber of the diffusion apparatus. At each time point, a 100 μl sample was taken from the receiver compartment and immediately replaced with an equal volume of PBSA. The transport studies were performed in the presence or absence of CsA (5-10 μM). Monolayers were checked for trypan blue exclusion after experiments as well to assess general cell viability. The permeability of all monolayers used in these experiments was monitored for [^14C] sucrose leakage as a measure of potential TH-237A-induced loss of integrity. The radioactivity was quantified using liquid scintillation spectrometry.

Consider `O=P([O-])([O-])OCC12COC(c3ccc(F)cc3)N1C(c1ccc(F)cc1)OC2.[Na+].[Na+]` (stereo not shown) [(3,5-bis(4-fluorophenyl)tetrahydro-1H-oxazolo[3,4-C]oxazol-7a-yl)methanol phosphate], for which, in series [1] (aqueous solution of prodrug), the “systemic exposure of drug from aqueous prodrug solution relative to Captisol solution of the parent compound” value is listed as “equivalent or better”.

For orientation: melting point means the temperature, or range, at which the solid turns liquid. Consider `OCC1(CO)COC(c2ccc(F)cc2)N1` (racemic) [TH-OPEN, (R/S)-(2-(4-fluorophenyl)oxazolidine-4,4-diyl)dimethanol], for which the melting point came to 89 °C. For the same molecule, in the series with primary cortical neurons, the EC50 was about 50 nM.

For orientation: Papp means a coefficient for how fast a substance crosses the barrier. A high value points to ready permeation. Regarding `OC[C@]12CO[C@H](c3ccc(F)cc3)N1[C@H](c1ccc(F)cc1)OC2` [TH-237A, (3R,5S,7as)-(3,5-bis(4-fluorophenyl)tetrahydro-1H-oxazolo[3,4-c]oxazol-7a-yl)methanol], in the series with primary cortical neurons, the EC50 was determined as 5 nM. In series [2], the “effect on rhodamine 123 accumulation / P-glycoprotein substrate” value is on record as “not a substrate for the P-glycoprotein efflux transporter”. The plasma half-life result in series [3] is “on the order of hours”. Besides, the “amount of drug entering the plasma” value in series [3] (regardless of route) is listed as “a very significant amount of the drug enters the plasma”. In addition, in “in vitro”, the Papp is 270 ×10⁻⁶ cm/s.

In the case of `OCC12CO[C@H](c3ccc(F)cc3)N1[C@@H](c1ccc(F)cc1)OC2` (racemic) [TH-236B, (3R,5R) and (3S,5S) (3,5-bis(4-fluorophenyl)tetrahydro-1H-oxazolo[3,4-c]oxazol-7a-yl)methanol], the EC50 in the series with primary cortical neurons was about 40 nM.

`OCC12CO[C@H](c3ccc(C(F)(F)F)cc3)N1[C@@H](c1ccc(C(F)(F)F)cc1)OC2` (racemic) [TH-242B, (3R,5R) and (3S,5S) (3,5-bis(4-trifluoromethylphenyl)tetrahydro-1H-oxazolo[3,4-c]oxazol-7a-yl)methanol] showed a melting point of 120 °C.

In the case of `OC[C@]12CO[C@H](c3ccc(C(F)(F)F)cc3)N1[C@H](c1ccc(C(F)(F)F)cc1)OC2` [TH-242A], the melting point worked out at 102 °C.

`OCC1(CO)COC(c2ccc(C(F)(F)F)cc2)N1` (racemic) [TH-OPENTFM, (R/S)-(2-(4-(trifluoromethyl)phenyl)oxazolidine-4,4-diyl)dimethanol] yielded a melting point of 98 °C.

Regarding `OCC12COC(c3ccc(F)cc3)N1C(c1ccc(F)cc1)OC2` (stereo not shown) [(3,5-bis(4-fluorophenyl)tetrahydro-1H-oxazolo[3,4-C]oxazol-7a-yl)methanol], the “systemic exposure after oral administration as a suspension compared to solution in Captisol” value in series [1] (suspension) is on record as “limited”.
